{"source": "paper PMC12703741", "about": "“Light-Activated Metal-Dependent Protein Degradation: A Heterobifunctional Ruthenium(II) Photosensitizer Targeting New Delhi Metallo-β-lactamase 1” (Journal of the American Chemical Society, 2025)", "key": {"NDM-1 [1]": {"molecular_target": "T1, NDM-1 (Klebsiella pneumoniae, UniProt C7C422)", "T1 sequence (C7C422 31-270 limits assumed)": "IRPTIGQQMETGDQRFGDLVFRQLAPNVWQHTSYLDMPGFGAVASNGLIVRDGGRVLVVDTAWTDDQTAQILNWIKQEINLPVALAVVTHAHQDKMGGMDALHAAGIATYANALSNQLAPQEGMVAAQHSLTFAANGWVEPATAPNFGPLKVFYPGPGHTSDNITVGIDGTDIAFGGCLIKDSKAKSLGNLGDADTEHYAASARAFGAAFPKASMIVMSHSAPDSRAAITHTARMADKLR", "format": "biochemical", "conditions": "mixture of NDM-1 and BSA, 0-1000 μM, light 450 nm, 20 J cm^-2", "method": "1.8 Protein degradation via SDS-PAGE […]\nwere made at 10 mM in DMSO and then diluted to the appropriate concentration (1 mM – 10 µM) in 50 mM HEPES pH 7.5. The enzyme stocks (10 µM) were made up in 50 mM HEPES pH 7.5. The compound and enzyme stocks were mixed 1:1 and then pre -incubated for 10 min […]\n‘light’ conditions the samples were transferred to a 96 well plate to provide irradiation. For a […]\n(208 s, 96 mW cm-2). For a dose of 60 J cm-2 the plate was irradiated immediately (624 s, 96 […]\nAn aliquot of each sample was mixed with SDS-sample buffer (NuPAGE® LDS Sample buffer 4x) and heated to 95°C for 3 min. The samples were loaded on to the gel (NuPAGE® 4-12% Bis-tris gel) and run at 200V/125 mA for 30 min (1 gel per Gel box) or 60 min (2 gels per Gel box). SDS-PAGE gels were imaged using a Cytiva Amersham ImageQuant™ 800.\nDensitometry of gel bands was measured and processed using Fiji (ImageJ).\n1.8.3 BSA+NDM-1 selectivity experiment […]\nnm, 20 J cm-2). Lane 1: Ladder; Lane 2: NDM-1 – no compound control (dark); Lane 3: BSA – no compound control (dark); Lane 4: NDM-1 + BSA - no compound control (dark); Lane 5: NDM-1 + BSA + 1 eq. compound (dark); Lane 6: NDM-1 + BSA + 10 eq. compound (dark); Lane 7: NDM-1 + BSA + 100 eq. compound (dark); Lane 8: NDM-1 + BSA - no compound control (light); Lane 9: NDM-1 + BSA + 1 eq. compound (light); Lane 10: NDM-1 + BSA + 10 eq. compound (light); Lane 11: NDM-1 + BSA + 100 eq. compound (light). […]\nthe dark (left) and under light irradiation (450 nm, 20 J cm-2)."}, "RAW264.7": {"test_system": "RAW264.7", "conditions": "RAW"}, "[2]": {"experiment": "Photostability by UV-Vis in PBS", "format": "physicochemical", "conditions": "10 μM, 450 nm", "method": "Both complexes were stable up to and including 23 J cm^–2 (Figure S5). The lifetime of the excited state is one of the key factors which affect ROS generation. […] To quantify the generation of ^1O2 produced by the complexes, 1,3-diphenylisobenzofuran (DPBF) was used as a ^1O2 scavenger. […]\nspectra of both compounds in PBS ( 10 μM) under light irradiation (450 nm, 23 J cm -2 over 240 […]\n1.2.4 Electron Paramagnetic Resonance (EPR)\nAll EPR measurements were performed using a Bruker Magnettech spectrometer (ESR5000), Bruker (Germany), at room temperature. EPR samples were transferred to a 20 μL BLAUBRAND micropipette and spectra were recorded at 9.47 GHz microwave frequency, 2 mW microwave power, 100 kHz modulation frequency and 0.1 mT modulation amplitude. The field was scanned from 331.3 mT to 343.3 mT and a single scan was acquired."}, "[3]": {"test_system": "seven mammalian cell lines", "conditions": "panel of seven mammalian cell lines including HepG2"}, "NDM-1 [4]": {"molecular_target": "T1, NDM-1"}, "[5]": {"experiment": "Chromatographic LogD measurement", "conditions": "pH 7.4"}, "E. coli empty": {"test_system": "E. coli empty", "conditions": "dark and light samples equivalent"}}, "note": "Like-named read-outs stand apart in the source and are kept apart here.", "data": [{"compound": "F[P-](F)(F)(F)(F)F.F[P-](F)(F)(F)(F)F.[Ru+2].c1ccc(-c2ccccn2)nc1.c1ccc(-c2ccccn2)nc1.c1ccc(-n2cnc3c4cccnc4c4ncccc4c32)cc1", "note": "[Ru2, [Ru(2,2'-bipyridine)2(1-phenyl-imidazo[4,5,f][1,10]phenanthroline)](PF6)2]", "values": [{"measurement": "Degradation of NDM-1 vs BSA (band intensity)", "setting": "NDM-1 [1]", "result": "both NDM-1 and BSA band intensities were diminished"}, {"measurement": "LD50", "setting": "HCT116; HCT116, 24 h", "result": "> 50", "unit": "µM"}, {"measurement": "LD50", "setting": "HCT116; HCT116, 48 h", "result": "> 50", "unit": "µM"}, {"measurement": "LD50", "setting": "RAW264.7; 24 h", "result": "> 50", "unit": "µM"}, {"measurement": "LD50", "setting": "RAW264.7; 48 h", "result": "> 50", "unit": "µM"}, {"measurement": "Light dose up to which complex is stable", "setting": "[2]", "result": "≥ 23", "unit": "J cm^–2"}, {"measurement": "MIC", "setting": "E. coli NDM-1; E. coli NDM-1, dark and light samples equivalent", "result": ">160", "unit": "µM"}, {"measurement": "Fold change in Meropenem MIC", "setting": "E. coli NDM-1; compound 5 μM, dark", "result": 0, "unit": "fold"}, {"measurement": "Fold change in Meropenem MIC", "setting": "E. coli NDM-1; compound 5 μM, light 450 nm, 60 J cm^-2", "result": 0, "unit": "fold"}, {"measurement": "Fold change in Meropenem MIC", "setting": "E. coli NDM-1; compound 10 μM, dark", "result": 0, "unit": "fold"}, {"measurement": "Fold change in Meropenem MIC", "setting": "E. coli NDM-1; compound 10 μM, light 450 nm, 60 J cm^-2", "result": 0, "unit": "fold"}, {"measurement": "Fold change in Meropenem MIC", "setting": "E. coli NDM-1; compound 20 μM, dark", "result": 0, "unit": "fold"}, {"measurement": "Fold change in Meropenem MIC", "setting": "E. coli NDM-1; compound 20 μM, light 450 nm, 60 J cm^-2", "result": 0, "unit": "fold"}, {"measurement": "Fold change in Meropenem MIC", "setting": "E. coli NDM-1; compound 40 μM, dark", "result": 0, "unit": "fold"}, {"measurement": "Fold change in Meropenem MIC", "setting": "E. coli NDM-1; compound 40 μM, light 450 nm, 60 J cm^-2", "result": 0, "unit": "fold"}, {"measurement": "Fold change in Meropenem MIC", "setting": "E. coli NDM-1; compound 80 μM, dark", "result": 0, "unit": "fold"}, {"measurement": "Fold change in Meropenem MIC", "setting": "E. coli NDM-1; compound 80 μM, light 450 nm, 60 J cm^-2", "result": 0, "unit": "fold"}, {"measurement": "LD50", "setting": "HEK293T; 24 h", "result": "> 50", "unit": "µM"}, {"measurement": "LD50", "setting": "HEK293T; 48 h", "result": "> 50", "unit": "µM"}, {"measurement": "Cytotoxicity (no cytotoxicity up to)", "setting": "[3]", "result": "> 50", "unit": "µM"}, {"measurement": "LD50", "setting": "HeLa; 24 h", "result": "> 50", "unit": "µM"}, {"measurement": "LD50", "setting": "HeLa; 48 h", "result": "> 50", "unit": "µM"}, {"measurement": "Change in melting temperature (ΔT) of NDM-1", "setting": "NDM-1 [4]; compound 4 μM", "result": 0.0, "unit": "°C"}, {"measurement": "Change in melting temperature (ΔT) of NDM-1", "setting": "NDM-1 [4]; compound 16 μM", "result": 0.0, "unit": "°C"}, {"measurement": "Change in melting temperature (ΔT) of NDM-1", "setting": "NDM-1 [4]; compound 63 μM", "result": 0.0, "unit": "°C"}, {"measurement": "Effect on melting temperature of NDM-1", "setting": "NDM-1 [4]; in words", "result": "no effect"}, {"measurement": "LD50", "setting": "hTERT RPE-1; RPE1, 24 h", "result": "> 50", "unit": "µM"}, {"measurement": "LD50", "setting": "hTERT RPE-1; RPE1, 48 h", "result": "> 50", "unit": "µM"}, {"measurement": "LD50", "setting": "HepG2; HepG2, 24 h", "result": "> 50", "unit": "µM"}, {"measurement": "LD50", "setting": "HepG2; HepG2, 48 h", "result": "> 50", "unit": "µM"}, {"measurement": "ChromLogD", "setting": "[5]", "result": 1.21}, {"measurement": "MIC", "setting": "E. coli empty", "result": ">160", "unit": "µM"}, {"measurement": "LD50", "setting": "HaCaT; 24 h", "result": "> 50", "unit": "µM"}, {"measurement": "LD50", "setting": "HaCaT; 48 h", "result": "> 50", "unit": "µM"}]}]}
